Mortality and pest or weed control data for twelve molecules are collected here from patent US12116357B2, “Heteroaryl-triazole and heteroaryl-tetrazole compounds as pesticides” (Bayer Aktiengesellschaft, priority 2018, dated 2024).

Holding throughout (format): in vivo
Test [1] deals with Aedes aegypti strain MONHEIM. In words: Aedes aegypti test (surface treatment & contact assay). The settings on record: 24 hours after contact, read-out: efficacy (mortality); for mortality at 20 mg/m2: surface concentration 20 mg/m^2, 30 min exposure. The protocol: (§1) • Solvent: Aceton+2000 ppm rapeseed oil methyl ester (RME)
In order to produce a sufficient, active ingredient containing solution it is necessary to solve the test compound in the solvent-mix (acetone at 2 mg/ml/RME 2000 ppm). This solution is pipetted onto a glazed tile and after evaporation of the acetone, adult mosquitoes of the species Aedes aegypti strain MONHEIM are placed onto the dried surface. The exposure time is 30 minutes.
(§2) Mortality in percent (%) is determined 24 hours after contact of the insects to the treated surface. 100% mortality means that all tested insects are dead, whereas 0% means that no insect died.

In test [2] the test system is Myzus persicae. In words: Myzus persicae oral test. The conditions noted are these: 120 h. On the procedure:
• Solvent: 100 parts by weight acetone
To produce a suitable preparation of active compound, 1 part by weight of active compound is mixed with the stated amount of solvent, and the concentrate is diluted with water to the desired concentration. 50 μl compound solution is filled in microtiter plates and 150 μl IPL41 insect medium (33%+15% sugar) is added to obtain a total volume of 200 μl per well. Afterwards the plates are sealed with parafilm through which a mixed population of the green peach aphid (Myzus persicae) can suck on the compound preparation.
(§3) After 5 days mortality in % is determined. 100% means all aphids have been killed and 0% means none of the aphids have been killed.

The subject of test [3] is Nezara viridula. The experiment in a line: Nezara viridula spray test. The conditions noted are these: 96 h. On the procedure:
(§4) • Solvent: 78.0 parts by weight of acetone • 1.5 parts by weight of dimethylformamide • Emulsifier: alkylarylpolyglycol ether
To produce a suitable preparation of active compound, 1 part by weight of active compound is mixed with the stated amount of solvent, and the concentrate is diluted with water, containing an emulsifier concentration of 1000 ppm, to the desired concentration. Further test concentrations are prepared by dilution with emulsifier containing water.
Barley plants (Hordeum vulgare) infested with larvae of the southern green stink bug (Nezara viridula) are sprayed with a test solution containing the desired concentration of the active ingredient.
After 4 days mortality in % is determined. 100% means all the stink bugs have been killed; 0% means none of the stink bugs have been killed.

Test [4] relates to Spodoptera frugiperda. In words: Spodoptera frugiperda spray test. The settings on record: 168 h. On the procedure:
(§5) • Solvent: 78.0 parts by weight acetone • 1.5 parts by weight dimethylformamide • Emulsifier: alkylarylpolyglycol ether
(§6) To produce a suitable preparation of active compound, 1 part by weight of active compound is mixed with the stated amount of solvents and is diluted with water, containing an emulsifier concentration of 1000 ppm, to the desired concentration. Further test concentrations are prepared by dilution with emulsifier containing water.
Maize (Zea mays) leaf sections are sprayed with a preparation of the active ingredient of the desired concentration. Once dry, the leaf sections are infested with fall armyworm larvae (Spodoptera frugiperda).
After 7 days mortality in % is determined. 100% means all caterpillars have been killed and 0% means none of the caterpillars have been killed.

Test [5] has as its system Anopheles funestus strain FUMOZ-R. The experiment in a line: Anopheles funestus test (surface treatment & contact assay). The conditions noted are these: 24 hours after contact, read-out: efficacy (mortality); for mortality at 4 mg/m2: surface concentration 4 mg/m^2, 30 min exposure; for mortality at 20 mg/m2: surface concentration 20 mg/m^2, 30 min exposure. The protocol: as §1
In order to produce a sufficient, active ingredient containing solution it is necessary to solve the test compound in the solvent-mix (acetone at 2 mg/ml/RME 2000 ppm). This solution is pipetted onto a glazed tile and after evaporation of the acetone, adult mosquitoes of the species Anopheles funestus strain FUMOZ-R (Hunt et al., Med. Vet. Entomol. 2005 September; 19(3): 271-275) are placed onto the dried surface. The exposure time is 30 minutes.
as §2

For test [6], the system named is Musca domestica strain WHO-N. In words: Musca domestica test (surface treatment & contact assay). The conditions noted are these: 24 hours after contact, read-out: efficacy (mortality). The protocol:
as §1
In order to produce a sufficient, active ingredient containing solution it is necessary to solve the test compound in the solvent-mix (acetone at 2 mg/ml/RME 2000 ppm). This solution is pipetted onto a glazed tile and after evaporation of the acetone, adult flies of the species Musca domestica strain WHO-N are placed onto the dried surface. The exposure time is 30 minutes.
as §2

In test [7] the test system is Ctenocephalides felis. The experiment in a line: Ctenocephalides felis in-vitro contact test, adult cat flea. The conditions noted are these: 5 μg/cm^2, after 48 hours, read-out: efficacy (fleas dead or moribund). The protocol:
9 mg compound is solved in 1 ml acetone and diluted with acetone to the desired concentration. 250 μl of the test solution is filled in 25 ml glass test tubes and homogeneously distributed on the inner walls by rotation and tilting on a shaking device (2 h at 30 rpm). With a compound concentration of 900 ppm, an inner surface of 44.7 cm^2 and a homogeneous distribution, a dose of 5 μg/cm^2 is achieved.
After the solvent has evaporated, each test tube is filled with 5-10 adult cat fleas (Ctenocephalides felis), closed with a perforated lid and incubated in a lying position at room temperature and relative humidity. After 48 hours efficacy is determined. The fleas are patted on the ground of the tubes and are incubated on a heating plate at 45-50° C. for at most 5 minutes. Immotile or uncoordinated moving fleas, which are not able to escape the heat by climbing upwards, are marked as dead or moribund.
An efficacy of 100% means all fleas are dead or moribund; 0% means no fleas are dead or moribund.

Test [8] concerns Ctenocephalides felis. In words: Ctenocephalides felis oral test. The settings on record: 48 h, 100 ppm in cattle blood, after 2 days. The protocol: (§7) • Solvent: dimethyl sulfoxide
To produce a suitable preparation of active compound, 10 mg of active compound are dissolved in 0.5 ml solvent, and the concentrate is diluted with cattle blood to the desired concentration.
Approximately 20 adult unfed cat fleas (Ctenocephalides felis) are placed in flea chambers. The blood chamber, sealed with parafilm on the bottom, are filled with cattle blood supplied with compound solution and placed on the gauze covered top of the flea chamber, so that the fleas are able to suck the blood. The blood chamber is heated to 37° C. whereas the flea chamber is kept at room temperature.
After 2 days mortality in % is determined. 100% means all the fleas have been killed; 0% means none of the fleas have been killed.

Test [9] concerns Phaedon cochleariae. The experiment in a line: Phaedon cochleariae spray test. The conditions noted are these: 168 h, after 7 days. On the procedure:
as §4, §6
Chinese cabbage (Brassica pekinensis) leaf disks are sprayed with a preparation of the active ingredient of the desired concentration. Once dry, the leaf disks are infested with mustard beetle larvae (Phaedon cochleariae).
After 7 days mortality in % is determined. 100% means all beetle larvae have been killed and 0% means none of the beetle larvae have been killed.

Test [10] relates to Boophilus microplus. In words: Boophilus microplus injection test. The conditions noted are these: Rhipicephalus microplus, 168 h, 20 μg/animal, egg deposition after 7 days, read-out: efficacy (infertile eggs). The protocol: as §7
To produce a suitable preparation of active compound, 10 mg of active compound are dissolved in 0.5 ml solvent, and the concentrate is diluted with solvent to the desired concentration.
Five adult engorged female ticks (Boophilus microplus) are injected with 1 μl compound solution into the abdomen. The ticks are transferred into replica plates and incubated in a climate chamber.
After 7 days egg deposition of fertile eggs is monitored. Eggs where fertility is not visible are stored in a climate chamber till hatching after about 42 days. An efficacy of 100% means all eggs are infertile; 0% means all eggs are fertile.

Test [11] deals with Myzus persicae. The experiment in a line: Myzus persicae spray test. The settings on record: 120 h. The protocol:
as §5, §6
Chinese cabbage (Brassica pekinensis) leaf disks infected with all instars of the green peach aphid (Myzus persicae), are sprayed with a preparation of the active ingredient of the desired concentration.
as §3

The subject of test [12] is Nilaparvata lugens. In words: Nilaparvata lugens spray test. The settings on record: 96 h. The protocol: as §4, §6
Rice plants (Oryza sativa) are sprayed with a preparation of the active ingredient of the desired concentration and the plants are infested with the brown planthopper (Nilaparvata lugens).
After 4 days mortality in % is determined. 100% means all planthoppers have been killed and 0% means none of the planthoppers have been killed.

Where [13] appears, read: surface concentration 4 mg/m^2, 30 min exposure.

The term mortality denotes the percentage killed. Turning to `CC(c1ncnn1-c1ncccn1)N(Cc1ncccn1)C(=O)c1cc(Cl)cc(C(F)(F)F)c1` (centres unmarked) [Example I-010], the figures for the mortality at 4 mg/m2 in [1] (setting [13]) and in test [5] were 80 to 100% and 85 to 100%, respectively. Besides, the mortality at 20 mg/m2 lay in the range of 90 to 100% in test [1]; 85 to 100% in [5]; 90 to 100% in test [6] (surface concentration 20 mg/m^2, 30 min exposure). Besides, in test [2], the mortality at 4 ppm is 100%. In [2], this molecule yielded a mortality at 20 ppm of 100%. Further, the mortality at 500 g/ha in [3], in [4] and in test [9] was 100% in each case. Besides, the pest or weed control at 5 µg/cm2 in test [7] amounted to 100%. The molecule further had a mortality at 100 ppm in test [8] of 100%. For the same molecule, the pest or weed control at 0.02 mg in [10] worked out at 100%.

With `CC(c1ncnn1-c1ncccn1)N(CC1CSC1)C(=O)c1cc(Cl)cc(C(F)(F)F)c1` (centres unmarked) [Example I-011], the mortality at 20 mg/m2 was 90 to 100% in test [1] and 85 to 100% in test [5]. The mortality at 500 g/ha in test [11], in test [3], in test [4], in [12] and in test [9] was 100% in each case. For the same molecule, the mortality at 4 ppm in test [2] was 100%. The mortality at 20 ppm in test [2] amounted to 100%. The results for the mortality at 4 mg/m2 in test [5] and in test [6] (setting [13]) were 85 to 100% and 90 to 100%, respectively. This molecule also came in with a mortality at 100 ppm in test [8] of 100%. The pest or weed control at 0.02 mg in [10] was 95%.

With `CC(c1ncnn1-c1ncccn1)N(CC1OCCO1)C(=O)c1cc(Cl)cc(C(F)(F)F)c1` (centres unmarked) [Example I-023], the mortality at 500 g/ha in [11] and in test [4] was 100% each time. The molecule also returned a mortality at 4 ppm in test [2] of 100%. For the same molecule, the mortality at 20 mg/m2 in test [5] lay within 85 to 100%. The pest or weed control at 5 µg/cm2 in [7] was found to be 80%. In [8], this molecule yielded a mortality at 100 ppm of 100%. In addition, in [10], the pest or weed control at 0.02 mg worked out at 100%.

`CC(c1ncnn1-c1ncccn1)N(C(=O)c1cc(Cl)cc(C(F)(F)F)c1)C1CSC1` (centres unmarked) [Example I-024] yielded a mortality at 4 ppm in [2] of 100%. This molecule also yielded a mortality at 20 ppm in test [2] of 100%. In addition, the mortality at 500 g/ha in test [3], in [12] and in test [9] was 100% each time. The pest or weed control at 5 µg/cm2 in [7] turned out to be 100%. Moreover, the mortality at 100 ppm in test [8] worked out at 100%.

Turning to `CC(c1ncnn1-c1ncccn1)N(C(=O)c1cc(Cl)cc(C(F)(F)F)c1)C1CS(=O)(=O)C1` (centres unmarked) [Example I-025], the mortality at 20 mg/m2 lay in the range of 90 to 100% in test [1] and 85 to 100% in [5]. The same molecule came in with a mortality at 4 ppm in test [2] of 100%. This molecule had a mortality at 20 ppm in [2] of 100%. Besides, the mortality at 500 g/ha in test [3] is 100%; in [12], 90%; in test [9] it was 100%. Further, in [5], the mortality at 4 mg/m2 was in the range of 85 to 100%. In test [8], this molecule came in with a mortality at 100 ppm of 100%.

Take `CSCCN(C(=O)c1cc(Cl)cc(S(C)(=O)=O)c1)C(C)c1ncnn1-c1ncccn1` (centres unmarked) [Example I-032]: the mortality at 500 g/ha worked out at 90% in test [11], 100% in test [3] and 100% in [12]. The mortality at 4 ppm in test [2] came out at 100%. Besides, the pest or weed control at 5 µg/cm2 in test [7] came to 100%.

As for `CSCCN(C(=O)c1cc(Cl)cc(Cl)c1)C(C)c1ncnn1-c1ccc(C#N)cn1` (centres unmarked) [Example I-036], the mortality at 500 g/ha was 90% in test [11], 90% in [3] and 100% in test [4]. Further, the mortality at 4 ppm in [2] worked out at 100%. Also, the pest or weed control at 5 µg/cm2 in test [7] worked out at 100%.

As to `CSCCN(C(=O)c1cc(Cl)cc(S(F)(F)(F)(F)F)c1)C(C)c1ncnn1-c1ccc(C#N)cn1` (centres unmarked) [Example I-039], the mortality at 500 g/ha in test [11], in test [3] and in test [4] was 100% throughout. Moreover, in test [7], the pest or weed control at 5 µg/cm2 turned out to be 100%.

In the case of `CSCCN(C(=O)c1cc(F)cc(C2CC2)c1)C(C)c1ncnn1-c1ccc(C#N)cn1` (centres unmarked) [Example I-040], the mortality at 500 g/ha in [11] is 100%. Besides, in test [7], the pest or weed control at 5 µg/cm2 is 100%.

For `CC(c1ncnn1-c1ncccn1)N(CCNS(C)(=O)=O)C(=O)c1cc(Cl)cc(C(F)(F)F)c1` (centres unmarked) [Example I-041], the mortality at 500 g/ha in [11] was 90%; in test [4] it was 100%. The molecule also had a mortality at 4 ppm in test [2] of 100%.

Take `CCOC(=O)NCCN(C(=O)c1cc(Cl)cc(C(F)(F)F)c1)C(C)c1ncnn1-c1ncccn1` (centres unmarked) [Example I-042]: the mortality at 500 g/ha in test [11], in test [3], in test [4] and in test [12] was 100% in each case. Further, the mortality at 4 ppm in test [2] came out at 100%.

In the case of `CC(=O)NCCN(C(=O)c1cc(Cl)cc(C(F)(F)F)c1)C(C)c1ncnn1-c1ncccn1` (centres unmarked) [Example I-043], the mortality at 500 g/ha in test [11], in test [3] and in test [4] was 100% in each case. The mortality at 4 ppm in [2] stood at 100%.
